For 21 molecules, CC50 results are on record in US9663528B2, “Substituted 1,2,3,4,6,8,12,12a-octahydro-1,4-methanodipyrido[1,2-a:1',2'-d]pyrazines and methods for treating viral infections” (priority 2012, dated 2017).

Each structure is given as a SMILES string.

One data set is described as follows: Cytotoxicity (CC50) in MT-4 cells, mock-infected, CellTiter-Glo. Particulars: human. Here is the method: For the antiviral assay utilizing MT4 cells, 0.4 μL of […] test concentration of 3-fold serially diluted compound in DMSO was added to 40 μL of cell growth medium (RPMI 1640, 10% FBS, 1% penicilline/Streptomycine, 1% L-Glutamine, 1% HEPES) in each well of 384-well assay plates (10 concentrations) in quidruplicate.
1 mL aliquots of 2×10^6 MT4 cells are pre-infected for 1 and 3 hours respectively at 37° C. with 25 μL (MT4) or of either cell growth medium (mock-infected) or a fresh 1:250 dilution of an HIV-IIIb concentrated ABI stock (0.004 m.o.i. for MT4 cells). Infected and uninfected cells are diluted in cell growth medium and 35 μL of 2000 (for MT4) cells is added to each well of the assay plates.
Assay plates were then incubated in a 37° C. incubator. After 5 days of incubation, 25 μL of 2× concentrated CellTiter-Glo™ Reagent (catalog #G7573, Promega Biosciences, Inc., Madison, Wis.) was added to each well of the assay plate. Cell lysis was carried out by incubating at room temperature for 2-3 minutes, and then chemiluminescence was read using the Envision reader (PerkinElmer).
On the technique in general: Cellular ATP, detected with luciferase, serves as a proxy for viable cell number.
Turning to `O=C(NC1(c2ccc(F)cc2F)CCCCC1)c1cn2c(c(O)c1=O)C(=O)N1C(C2)O[C@H]2CC[C@@H]1C2` (stereo partly drawn) [Compound 34, (2S,5R)-N-(1-(2,4-difluorophenyl)cyclohexyl)-8-hydroxy-7,9-dioxo-2,3,4,5,7,9,13,13a-octahydro-2,5-methanopyrido[1′,2′:4,5]pyrazino[2,1-b][1,3]oxazepine-10-carboxamide], the CC50 at 5 days is 3580 nM.

Still in this data set, the particulars now being: human, CC50 nM in MT-4.
Regarding `O=C(NCc1ccc(F)cc1F)c1cn2c(c(O)c1=O)C(=O)N1[C@@H]3CC[C@@H](C3)O[C@H]1C2` (racemic) [Compound 1, N-(2,4-difluorobenzyl)-8-hydroxy-7,9-dioxo-2,3,4,5,7,9,13,13a-octahydro-2,5-methanopyrido[1′,2′:4,5]pyrazino[2,1-b][1,3]oxazepine-10-carboxamide], the CC50 at 5 days was 5820 nM.

For `C[C@@H](NC(=O)c1cn2c(c(O)c1=O)C(=O)N1[C@H]3CC[C@H](C3)O[C@@H]1C2)c1ccc(F)cc1F` [Compound 12, (2R,5S,13aR)-N—((R)-1-(2,4-difluorophenyl)ethyl)-8-hydroxy-7,9-dioxo-2,3,4,5,7,9,13,13a-octahydro-2,5-methanopyrido[1′,2′:4,5]pyrazino[2,1-b][1,3]oxazepine-10-carboxamide], the CC50 at 5 days turned out to be 3340 nM.

`C[C@H](NC(=O)c1cn2c(c(O)c1=O)C(=O)N1[C@H]3CC[C@H](C3)O[C@@H]1C2)c1ccc(F)cc1F` [Compound 14, (2R,5S,13aR)-N—((S)-1-(2,4-difluorophenyl)ethyl)-8-hydroxy-7,9-dioxo-2,3,4,5,7,9,13,13a-octahydro-2,5-methanopyrido[1′,2′:4,5]pyrazino[2,1-b][1,3]oxazepine-10-carboxamide] had a CC50 at 5 days of 4940 nM.

For the molecule `C[C@H](NC(=O)c1cn2c(c(O)c1=O)C(=O)N1[C@@H]3CC[C@@H](C3)O[C@H]1C2)c1ccc(F)cc1` [Compound 21, (2S,5R,13aS)-N—((S)-1-(4-fluorophenyl)ethyl)-8-hydroxy-7,9-dioxo-2,3,4,5,7,9,13,13a-octahydro-2,5-methanopyrido[1′,2′:4,5]pyrazino[2,1-b][1,3]oxazepine-10-carboxamide], the CC50 at 5 days was found to be 13000 nM.

In the case of `C[C@H](NC(=O)c1cn2c(c(O)c1=O)C(=O)N1[C@H]3CC[C@H](C3)O[C@@H]1C2)c1ccc(F)cc1` [Compound 22, (2R,5S,13aR)-N—((S)-1-(4-fluorophenyl)ethyl)-8-hydroxy-7,9-dioxo-2,3,4,5,7,9,13,13a-octahydro-2,5-methanopyrido[1′,2′:4,5]pyrazino[2,1-b][1,3]oxazepine-10-carboxamide], the CC50 at 5 days was 4430 nM.

As for `O=C(NCc1cc(F)cc(F)c1)c1cn2c(c(O)c1=O)C(=O)N1[C@@H]3CC[C@@H](C3)O[C@H]1C2` [Compound 24, (2S,5R,13aS)-N-(3,5-difluorobenzyl)-8-hydroxy-7,9-dioxo-2,3,4,5,7,9,13,13a-octahydro-2,5-methanopyrido[1′,2′:4,5]pyrazino[2,1-b][1,3]oxazepine-10-carboxamide], the CC50 at 5 days stood at 12100 nM.

`O=C(NCc1ccc(F)c(C(F)(F)F)c1)c1cn2c(c(O)c1=O)C(=O)N1[C@@H]3CC[C@@H](C3)O[C@H]1C2` [Compound 25, (2S,5R,13aS)-N-(4-fluoro-3-(trifluoromethyl)benzyl)-8-hydroxy-7,9-dioxo-2,3,4,5,7,9,13,13a-octahydro-2,5-methanopyrido[1′,2′:4,5]pyrazino[2,1-b][1,3]oxazepine-10-carboxamide]: the CC50 at 5 days amounted to 5230 nM.

`O=C(NCc1ccc(Cl)c(F)c1)c1cn2c(c(O)c1=O)C(=O)N1[C@@H]3CC[C@@H](C3)O[C@H]1C2` [Compound 26, (2S,5R,13aS)-N-(4-chloro-3-fluorobenzyl)-8-hydroxy-7,9-dioxo-2,3,4,5,7,9,13,13a-octahydro-2,5-methanopyrido[1′,2′:4,5]pyrazino[2,1-b][1,3]oxazepine-10-carboxamide] came in with a CC50 at 5 days of 8840 nM.

Consider `O=C(NC1(c2ccc(F)cc2F)CC1)c1cn2c(c(O)c1=O)C(=O)N1C(C2)O[C@H]2CC[C@@H]1C2` (stereo partly drawn) [Compound 27, (2S,5R)-N-(1-(2,4-difluorophenyl)cyclopropyl)-8-hydroxy-7,9-dioxo-2,3,4,5,7,9,13,13a-octahydro-2,5-methanopyrido[1′,2′:4,5]pyrazino[2,1-b][1,3]oxazepine-10-carboxamide], for which the CC50 at 5 days was 8750 nM.

For the molecule `O=C(NC1(c2ccc(F)cc2F)CC1)c1cn2c(c(O)c1=O)C(=O)N1C(C2)O[C@@H]2CC[C@H]1C2` (stereo partly drawn) [Compound 31, (2R,5S)-N-(1-(2,4-difluorophenyl)cyclopropyl)-8-hydroxy-7,9-dioxo-2,3,4,5,7,9,13,13a-octahydro-2,5-methanopyrido[1′,2′:4,5]pyrazino[2,1-b][1,3]oxazepine-10-carboxamide], the CC50 at 5 days came to 4520 nM.

`O=C(NC1(c2ccc(F)cc2F)CCOCC1)c1cn2c(c(O)c1=O)C(=O)N1C(C2)O[C@H]2CC[C@@H]1C2` (stereo partly drawn) [Compound 35, (2S,5R)-N-(4-(2,4-difluorophenyl)tetrahydro-2H-pyran-4-yl)-8-hydroxy-7,9-dioxo-2,3,4,5,7,9,13,13a-octahydro-2,5-methanopyrido[1′,2′:4,5]pyrazino[2,1-b][1,3]oxazepine-10-carboxamide] yielded a CC50 at 5 days of 15500 nM.

For `O=C(NCc1ncccc1C(F)(F)F)c1cn2c(c(O)c1=O)C(=O)N1[C@@H]3CC[C@@H](C3)O[C@H]1C2` [Compound 49, (2S,5R,13aS)-8-hydroxy-7,9-dioxo-N-((3-(trifluoromethyl)pyridin-2-yl)methyl)-2,3,4,5,7,9,13,13a-octahydro-2,5-methanopyrido[1′,2′:4,5]pyrazino[2,1-b][1,3]oxazepine-10-carboxamide], the CC50 at 5 days was found to be 52200 nM.

On to `O=C(NCc1ccc(F)cc1OC1CC1)c1cn2c(c(O)c1=O)C(=O)N1[C@@H]3CC[C@@H](C3)O[C@H]1C2` [Compound 52, (2S,5R,13aS)-N-(2-cyclopropoxy-4-fluorobenzyl)-8-hydroxy-7,9-dioxo-2,3,4,5,7,9,13,13a-octahydro-2,5-methanopyrido[1′,2′:4,5]pyrazino[2,1-b][1,3]oxazepine-10-carboxamide], for which the CC50 at 5 days came out at 12900 nM.

On to `O=C(NCc1ccc(F)cc1OC1CC1)c1cn2c(c(O)c1=O)C(=O)N1[C@H]3CC[C@H](C3)O[C@@H]1C2` [Compound 53, (2R,5S,13aR)-N-(2-cyclopropoxy-4-fluorobenzyl)-8-hydroxy-7,9-dioxo-2,3,4,5,7,9,13,13a-octahydro-2,5-methanopyrido[1′,2′:4,5]pyrazino[2,1-b][1,3]oxazepine-10-carboxamide], for which the CC50 at 5 days is 3350 nM.

Consider `O=C(NCc1ccc(F)cc1C(F)(F)F)c1cn2c(c(O)c1=O)C(=O)N1[C@H]3CC[C@H](C3)O[C@@H]1C2` [Compound 62, (2R,5S,13aR)-N-(4-fluoro-2-(trifluoromethyl)benzyl)-8-hydroxy-7,9-dioxo-2,3,4,5,7,9,13,13a-octahydro-2,5-methanopyrido[1′,2′:4,5]pyrazino[2,1-b][1,3]oxazepine-10-carboxamide], for which the CC50 at 5 days turned out to be 3490 nM.

`O=C(NCc1cc(Cl)c(F)cc1F)c1cn2c(c(O)c1=O)C(=O)N1[C@H]3CC[C@H](C3)O[C@@H]1C2` [Compound 65, (2R,5S,13aR)-N-(5-chloro-2,4-difluorobenzyl)-8-hydroxy-7,9-dioxo-2,3,4,5,7,9,13,13a-octahydro-2,5-methanopyrido[1′,2′:4,5]pyrazino[2,1-b][1,3]oxazepine-10-carboxamide] came in with a CC50 at 5 days of 2510 nM.

`O=C(NCc1cccc(C(F)(F)F)c1F)c1cn2c(c(O)c1=O)C(=O)N1[C@H]3CC[C@H](C3)[C@@H]1C2` [Compound 74, (1R,4S,12aR)-N-(2-fluoro-3-(trifluoromethyl)benzyl)-7-hydroxy-6,8-dioxo-1,2,3,4,6,8,12,12a-octahydro-1,4-methanodipyrido[1,2-a:1′,2′-d]pyrazine-9-carboxamide] showed a CC50 at 5 days of 4340 nM.

Take `O=C(NCc1ncc(F)cc1F)c1cn2c(c(O)c1=O)C(=O)N1[C@H]3CC[C@H](C3)[C@@H]1C2` [Compound 76, (1R,4S,12aR)-N-((3,5-difluoropyridin-2-yl)methyl)-7-hydroxy-6,8-dioxo-1,2,3,4,6,8,12,12a-octahydro-1,4-methanodipyrido[1,2-a:1′,2′-d]pyrazine-9-carboxamide]: the CC50 at 5 days amounted to 34600 nM.

Molecule `C[C@@H](NC(=O)c1cn2c(c(O)c1=O)C(=O)N1[C@@H]3CC[C@H](C3)O[C@@H]1C2)c1c(F)cc(F)cc1F` [Compound 78, (2R,13aR)-8-hydroxy-7,9-dioxo-N—((R)-1-(2,4,6-trifluorophenyl)ethyl)-2,3,4,5,7,9,13,13a-octahydro-2,5-methanopyrido[1′,2′:4,5]pyrazino[2,1-b][1,3]oxazepine-10-carboxamide] had a CC50 at 5 days of 3200 nM.

The molecule `O=C(NCc1ccccc1)c1cn2c(c(O)c1=O)C(=O)N1[C@H]3CC[C@H](C3)[C@@H]1C2` [Compound 94, (1R,4S,12aR)-N-benzyl-7-hydroxy-6,8-dioxo-1,2,3,4,6,8,12,12a-octahydro-1,4-methanodipyrido[1,2-a:1′,2′-d]pyrazine-9-carboxamide] yielded a CC50 at 5 days of 51200 nM.
